# Measured values: PMC5775280, “Functional Characterization and Signaling Systems of Corazonin and Red Pigment Concentrating Hormone in the Green Shore Crab, Carcinus maenas” (Frontiers in Neuroscience, 2018)
# Peptide text beside a SMILES is read from it.
# Columns and labels:
# [1] = target: T1, C. maenas RPCHR (red pigment concentrating hormone receptor) (Carcinus maenas, UniProt A0A2L0WQF2); assay: Aequorin luminescence Ca2+ mobilization in CHO-K1-Aeq cells transiently expressing RPCHR; assay type: cell-based; conditions: CHO-K1-Aeq cells (without Gα16) transiently expressing RPCHR; luminescence response normalized to total Ca2+ response; dose response curves, means of n = 4
# T1 sequence (A0A2L0WQF2 1-529): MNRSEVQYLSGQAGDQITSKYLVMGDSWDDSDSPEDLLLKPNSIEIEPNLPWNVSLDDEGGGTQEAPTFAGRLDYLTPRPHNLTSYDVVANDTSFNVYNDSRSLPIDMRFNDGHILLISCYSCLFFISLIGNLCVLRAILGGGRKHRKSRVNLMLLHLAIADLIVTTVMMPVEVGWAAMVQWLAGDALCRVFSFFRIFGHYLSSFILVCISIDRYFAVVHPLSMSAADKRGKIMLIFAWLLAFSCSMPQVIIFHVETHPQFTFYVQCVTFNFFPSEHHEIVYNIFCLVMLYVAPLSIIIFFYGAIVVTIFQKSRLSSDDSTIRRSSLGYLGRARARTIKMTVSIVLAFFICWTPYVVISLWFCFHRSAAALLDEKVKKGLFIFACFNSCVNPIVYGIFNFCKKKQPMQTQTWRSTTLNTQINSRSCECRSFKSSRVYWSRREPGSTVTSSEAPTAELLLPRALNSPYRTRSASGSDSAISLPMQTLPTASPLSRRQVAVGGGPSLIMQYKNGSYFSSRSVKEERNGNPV
# Protocol: Chinese hamster ovary (CHO-K1) cells containing stably expressed apoaequorin (Perkin Elmer, Boston, MA) and either Gα16 or Gq subunit (control cells) were cultured in Dulbecco's Modified Eagle Medium (DMEM) F-12 Nutrient Mixture GlutaMax (Gibco®) supplemented with 10% fetal bovine serum (Gibco®). Cells were maintained in vented T75 flasks at 37°C in 5% CO2.
# Cells grown in a monolayer to approximately 60% confluency in T75 flasks were transfected with pcDNA3.1 constructs using FugeneHD (Promega) according to the manufacturer's recommendations. Briefly, transfection medium was prepared by combining 800 μl Opti-MEM® (Gibco) with 10 μg vector and 30 μl Fugene HD in a 2 ml polystyrene tube and incubated for 10 min at room temperature. The transfection reagent was added to 5 ml of fresh culture media and the cells incubated overnight at 37°C in 5% CO2. After 24 h, an additional 10 ml of culture media were added to the flasks and the cells returned to 37°C at 5% CO2 for a further overnight incubation.
# On the day of the assay, cells were detached from the culture flask by incubating for 12 min in 5 ml 0.2% EDTA in PBS. The cells were washed with 10 ml DMEM clear DMEM/F-12 containing L-glutamine, 15 mM HEPES and moved to 50 ml centrifuge tubes. Cells were centrifuged for 5 min at 260 g and resuspended to a concentration of 5 × 10^6 cells ml^−1 in 0.2 μm filtered BSA medium (DMEM/F-12 containing L-glutamine, 15 mM HEPES + 0.1% BSA). Coelenterazine h (Invitrogen, Paisley, UK) was added to a concentration of 5 μM and the cells incubated for 4 h in the dark at room temperature whilst gently rocking. The cells were diluted 10-fold and incubated for a further 60 min before use in the assay. Synthetic peptides (GeneCust, Dudelange, Luxembourg) were reconstituted in 30% acetonitrile, dried in small aliquots by vacuum centrifugation and subsequently redissolved in BSA medium. Fifty microliter aliquots were then dispensed into quadruplicate wells of a white 96-well plate (OptiPlate, PerkinElmer). Cell suspensions were gently stirred and injected in 50 μl aliquots into each well using a Mithras LB 940 microplate reader (Berthold Technologies, Bad-Wildbad, Germany) and light emission (Ca^2+ response) recorded for 30 s. Cells were then lysed by injection of 0.3% Triton-X in BSA medium and light emission recorded for a further 10 s to measure total Ca^2+ response. BSA medium was used for blank measurements (6 replicate wells per plate) and mock transfection with empty vectors carried out for negative controls. Data was analyzed using MikroWin v5.18 (Mikrotek Laborsysteme GmbH) and SigmaPlot v.13 (Systat Software, Inc.). Receptor response was normalized against total Ca^2+ response.
# semi-isolated heart = assay: Cardioactivity on semi-isolated heart preparations; set-up: species or system Carcinus maenas; conditions: superfusion, concentrations up to 10^−6 M, 20°C
# Protocol: Cardioactivity of […], and ACP was performed on semi-isolated heart preparations of C. maenas. Crabs (ca. 65 mm carapace width) were ice-anesthetized and rapidly decerebrated before removing all limbs and the dorsal carapace to expose the heart and pericardial cavity. The heart was connected to a force transducer (MLT0210/A) via a micro fishing hook (size 28) and fine nylon (0.08 mm) monofilament. Connection to a PC with Chart 4.0 was via a Bridge Pod (ML301) and Powerlab 4/20 (AD Instruments Pty Ltd, Castle Hill, NSW, Australia). Transducer gain was set at maximum sensitivity (200 μV). Heart preparations were initially perfused with C. maenas physiological saline (Saver et al., [1999]) at room temperature (20°C). Once a stable heart output was achieved, hearts were firstly perfused with 1 ml saline, followed by increasing concentrations of peptides, applied in 1 ml. Crustacean cardioactive peptide (CCAP) (Bachem, Bubendorf, Switzerland), or proctolin (Sigma, Poole, UK) were positive controls (10^-11-10^-7 M). Test peptides ([…]) were perfused at 10^-8-10^-6 M for approximately 2 min at each concentration.
smiles,measurement,setting,value
CC(C)C[C@H](NC(=O)[C@@H]1CCC(=O)N1)C(=O)N[C@@H](CC(N)=O)C(=O)N[C@@H](Cc1ccccc1)C(=O)N[C@@H](CO)C(=O)N1CCC[C@H]1C(=O)NCC(=O)N[C@@H](Cc1c[nH]c2ccccc12)C(N)=O [RPCH] (HELM PEPTIDE1{[Glp].L.N.F.S.P.G.W.[am]}$$$$V2.0),EC50,[1],20 pM
same,cardioacceleratory effect on semi-isolated hearts,semi-isolated heart,completely without cardioacceleratory effect
